ChEMBL document CHEMBL2074066, “Fluorescent substrates of sister-P-glycoprotein (BSEP) evaluated as markers of active transport and inhibition: evidence for contingent unequal binding sites” (Pharm Res, 2003)
pIC50: −log10 of the molar value.

Tests used:
Assay type in all cases: functional, cell-based
[1] = molecular target: T1, Bile salt export pump (Homo sapiens, UniProt O95342); experiment: TP_TRANSPORTER: inhibitory effect of typical BSEP inhibitors (Verapamil & Cyclosporin A) in SK-E2 cells (expressing BSEP)
[2] = molecular target: T1, Bile salt export pump; experiment: TP_TRANSPORTER: increase in dihydrofluorescein intracellular accumulation (dihydrofluorescein: 1 uM) in SK-E2 cells (expressing BSEP); conditions: for Activity: sk-e2
[3] = molecular target: T1, Bile salt export pump; experiment: TP_TRANSPORTER: increase in bodipy intracellular accumulation (Bodipy: 0.2 uM) in SK-E2 cells (expressing BSEP); conditions: for Activity: human, sk-e2

T1 sequence (O95342 whole entry): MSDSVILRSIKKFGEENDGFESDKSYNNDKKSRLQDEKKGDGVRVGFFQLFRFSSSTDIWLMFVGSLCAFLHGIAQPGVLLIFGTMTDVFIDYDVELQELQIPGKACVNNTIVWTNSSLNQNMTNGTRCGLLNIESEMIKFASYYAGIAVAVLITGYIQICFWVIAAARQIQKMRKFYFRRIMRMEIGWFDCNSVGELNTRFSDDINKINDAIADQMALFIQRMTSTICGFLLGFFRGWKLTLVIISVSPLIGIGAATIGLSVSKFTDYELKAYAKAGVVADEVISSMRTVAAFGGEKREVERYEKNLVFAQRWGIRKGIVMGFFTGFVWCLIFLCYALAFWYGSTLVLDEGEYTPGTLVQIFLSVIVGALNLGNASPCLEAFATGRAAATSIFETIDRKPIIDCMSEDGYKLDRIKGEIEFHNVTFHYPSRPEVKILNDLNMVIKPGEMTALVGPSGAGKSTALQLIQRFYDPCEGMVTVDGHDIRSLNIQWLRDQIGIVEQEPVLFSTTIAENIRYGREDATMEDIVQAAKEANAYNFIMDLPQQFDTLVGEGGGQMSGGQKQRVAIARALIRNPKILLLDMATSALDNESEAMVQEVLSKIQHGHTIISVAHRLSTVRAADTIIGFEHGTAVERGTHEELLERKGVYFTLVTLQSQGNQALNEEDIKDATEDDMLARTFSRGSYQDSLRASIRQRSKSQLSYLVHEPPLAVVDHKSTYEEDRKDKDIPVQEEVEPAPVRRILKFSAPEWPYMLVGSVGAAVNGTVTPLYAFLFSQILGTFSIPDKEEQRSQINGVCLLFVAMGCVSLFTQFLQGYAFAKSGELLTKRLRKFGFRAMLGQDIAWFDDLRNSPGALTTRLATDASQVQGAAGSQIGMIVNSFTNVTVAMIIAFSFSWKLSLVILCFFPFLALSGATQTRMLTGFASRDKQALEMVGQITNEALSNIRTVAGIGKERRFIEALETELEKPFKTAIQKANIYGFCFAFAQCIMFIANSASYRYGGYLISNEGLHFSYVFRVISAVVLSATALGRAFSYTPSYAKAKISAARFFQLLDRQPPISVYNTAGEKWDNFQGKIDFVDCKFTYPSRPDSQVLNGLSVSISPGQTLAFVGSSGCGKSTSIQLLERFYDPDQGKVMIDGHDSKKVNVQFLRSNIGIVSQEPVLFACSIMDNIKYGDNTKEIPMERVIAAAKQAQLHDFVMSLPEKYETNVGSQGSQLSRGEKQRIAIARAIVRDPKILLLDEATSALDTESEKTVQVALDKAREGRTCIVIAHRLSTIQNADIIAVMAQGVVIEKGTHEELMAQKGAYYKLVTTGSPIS

Compound | Activity [1] | pIC50 [2] | other results
CN(C)c1ccc2c(-c3ccc(CCl)cc3)c3ccc(=[N+](C)C)cc-3oc2c1.[Br-] [TETRAMETHYLROSAMINE] | is not a substrate [-] |  | 
O=C(O)c1ccccc1C1c2ccc(O)cc2Oc2cc(O)ccc21 [FLUORESCIN] | substrate [+] |  | 
CC(=O)OCOC(=O)CN(CC(=O)OCOC(C)=O)c1ccc(C)cc1OCCOc1cc(-c2c3cc(Cl)c(=O)cc-3oc3cc(OCOC(C)=O)c(Cl)cc23)ccc1N(CC(=O)OCOC(C)=O)CC(=O)OCOC(C)=O | is not a substrate [-] |  | 
C[C@H](CCC(=O)NCCS(=O)(=O)O)[C@H]1CC[C@H]2[C@@H]3CC[C@@H]4C[C@H](O)CC[C@]4(C)[C@H]3CC[C@]12C [TAUROLITHOCHOLIC ACID] |  | 3.72 | Activity [3]: is not an inhibitor [-]
CN(C)CCCN1c2ccccc2Sc2ccc(Cl)cc21 [CHLORPROMAZINE] |  | 4.47 | pIC50 [3]: 4.51
C=C[C@H]1C[N@@]2CC[C@H]1C[C@@H]2[C@@H](O)c1ccnc2ccc(OC)cc12 [QUINIDINE] |  |  | Activity [2]: is not an inhibitor [-]
O=C1OC2(c3ccc(O)cc3Oc3cc(O)ccc32)c2ccccc21 [FLUORESCEIN] | substrate [+] |  | 
CC(=O)Oc1cc2c(cc1Cl)C(c1c(C(=O)O)cccc1C(=O)O)c1cc(Cl)c(OC(C)=O)cc1O2.CC(=O)Oc1cc2c(cc1Cl)C(c1cc(C(=O)O)ccc1C(=O)O)c1cc(Cl)c(OC(C)=O)cc1O2 | is not a substrate [-] |  | 
CN/C(=N/CCSCc1nc[nH]c1C)NC#N [CIMETIDINE] |  |  | Activity [2]: is not an inhibitor [-]; Activity [3]: is not an inhibitor [-]
O=C(O[C@@H]1Cc2c(O)cc(O)cc2O[C@@H]1c1cc(O)c(O)c(O)c1)c1cc(O)c(O)c(O)c1 [EPIGALOCATECHIN GALLATE] |  |  | Activity [2]: is not an inhibitor [-]; pIC50 [3]: 3.67
COc1cccc2c1C(=O)c1c(O)c3c(c(O)c1C2=O)C[C@@](O)(C(C)=O)C[C@@H]3O[C@H]1C[C@H](N)[C@H](O)[C@H](C)O1 [DAUNORUBICIN] | is not a substrate [-] |  | 
CCN1C(=C/C=C/c2n(CC)c3cc(Cl)c(Cl)cc3[n+]2CC)N(CC)c2cc(Cl)c(Cl)cc21.[I-] | is not a substrate [-] |  | 
COc1cccc2c1C(=O)c1c(O)c3c(c(O)c1C2=O)C[C@@](O)(C(=O)CO)C[C@@H]3O[C@H]1C[C@H](N)[C@H](O)[C@H](C)O1 [DOXORUBICIN] | is not a substrate [-] |  | 
O=C(CI)Nc1ccc(-c2c3ccc(=O)cc-3oc3cc(O)ccc23)c(C(=O)O)c1 [5-Iodoacetamidofluorescein] | is not a substrate [-] |  | 
CN(CCOC(=O)CI)c1ccc([N+](=O)[O-])c2nonc12 | is not a substrate [-] |  | 
CO[C@H]1/C=C/O[C@@]2(C)Oc3c(C)c(O)c4c(O)c(cc(O)c4c3C2=O)NC(=O)/C(C)=C\C=C\[C@H](C)[C@H](O)[C@@H](C)[C@@H](O)[C@@H](C)[C@H](OC(C)=O)[C@@H]1C [RIFAMYCIN] |  | 4.91 | pIC50 [3]: 3.69
CC(C)[C@@H]1NC(=O)[C@H](C)OC(=O)[C@@H](C(C)C)NC(=O)[C@@H](C(C)C)OC(=O)[C@H](C(C)C)NC(=O)[C@H](C)OC(=O)[C@@H](C(C)C)NC(=O)[C@@H](C(C)C)OC(=O)[C@H](C(C)C)NC(=O)[C@H](C)OC(=O)[C@@H](C(C)C)NC(=O)[C@@H](C(C)C)OC1=O [VALINOMYCIN] |  | 5.14 | Activity [3]: is not an inhibitor [-]
COC(=O)[C@H]1[C@H]2C[C@@H]3c4[nH]c5cc(OC)ccc5c4CCN3C[C@H]2C[C@@H](OC(=O)c2cc(OC)c(OC)c(OC)c2)[C@@H]1OC [RESERPINE] |  | 4.99 | Activity [3]: is not an inhibitor [-]
CC(C)/N=c1\cc2n(-c3ccc(Cl)cc3)c3ccccc3nc-2cc1Nc1ccc(Cl)cc1 [CLOFAZIMINE] |  | 4.54 | 
COC(=O)c1ccccc1-c1c2ccc(=N)cc-2oc2cc(N)ccc12.Cl [RHODAMINE123] | is not a substrate [-] |  | 
CC[C@]1(O)C[C@@H]2CN(CCc3c([nH]c4ccccc34)[C@@](C(=O)OC)(c3cc4c(cc3OC)N(C)[C@H]3[C@@](O)(C(=O)OC)[C@H](OC(C)=O)[C@]5(CC)C=CCN6CC[C@]43[C@@H]65)C2)C1 [VINBLASTINE] |  | 4.21 | pIC50 [3]: 3.94
CC[n+]1cc(N(C)C)cc2ccc(/C=C/C=C/c3ccc(N(C)C)cc3)cc21 | is not a substrate [-] |  | 
Cc1c(C)c2c(c(C)c1O)CCC(C)(COc1ccc(CC3SC(=O)NC3=O)cc1)O2 (centres undefined) [TROGLITAZONE] |  | 4.18 | 
CC(=O)OCOC(=O)CN(CC(=O)OCOC(C)=O)Cc1c(OC(C)=O)ccc2c1Oc1c(ccc(OC(C)=O)c1CN(CC(=O)OCOC(C)=O)CC(=O)OCOC(C)=O)C21OC(=O)c2ccccc21 | is not a substrate [-] |  | 
CCOc1ccc(-c2nc3cc(-c4nc5cc(N6CCN(C)CC6)ccc5[nH]4)ccc3[nH]2)cc1 | is not a substrate [-] |  | 
Cc1cc(C)n2c1C=C1C=CC(CCCCCCCCCCCC(=O)OC3CC[C@@]4(C)C(=CC[C@@H]5[C@@H]4CC[C@]4(C)C(C(C)CCCC(C)C)CC[C@@H]54)C3)=[N+]1[B-]2(F)F (some centres undefined) [CHOLESTERYL BODIPY FL C12] | is not a substrate [-] |  | 
